Results taken from patent US9688667B2, “Tazarotene with low dimer impurity for treating acne or psoriasis” (SUN PHARMACEUTICAL INDUSTRIES LIMITED, priority 2013, dated 2017).

Legend:
[1] = tazarotene gel, psoriasis, cited from earlier work
[2] = test system: ear of Sprague Dawley Rats; test: Toxicity study: topical application of tazarotene spiked with dimer impurity on rat ears, ear thickness measurement; assay type: in vivo
Experimental: Inventor performed the toxicity study of tazarotene spiked with known dimer impurity by applying the fixed concentration a solution of tazarotene (0.1% w/v tazarotene) with variable concentrations of impurity (0-1500 ppm) on Sprague Dawley Rats as given in Table 1.
Each sample (100 μl) was applied topically once daily on the left and right ear of the animals (Sprague Dawley Rats) of the respective groups from day 0 to day 9. Animals were checked for recovery from day 10 to day 14. Ear thickness measurement was repeated on day 3, 7, 10, 12 and 14.

## CCOC(=O)c1ccc(C#Cc2ccc3c(c2)C(C)(C)CCS3)nc1 [tazarotene, ethyl 6-[(4,4-dimethylthiochroman-6-yl)ethynyl]nicotinate]
[1]; of patient population
  cessation of treatment due to adverse events: about 5%
[1]
  most common adverse effect: mild to moderate burning, pruritus, stinging and erythema

## CC1(C)CCSc2ccc(C#CC#Cc3ccc4c(c3)C(C)(C)CCS4)cc21 [dimer impurity, 4,4-dimethyl-6-[4-(4,4-dimethylthiochroman-6-yl)-buta-1,3-diynyl]-thiochroman]
[2]; dimer impurity 0-1500 ppm in tazarotene samples, topical application
  effect of level of dimer impurity on ear thickness and inflammation: dose dependent and significant increase
[2]; found during the animal studies
  toxicity of the dimer impurity: highly toxic
